The conditions of series [1]: on the order of; cited from earlier work.
A short description of series [2]: pH titration of sodium valproate solutions (5 mL) with 25 mM HCl (FIG. 7).
The conditions of series [3]: reported solubility limit; cited from earlier work.
Series [4] is described as follows: pH of aqueous sodium valproate solutions. Format: physicochemical.
For series [5], the system named is human subjects. Briefly: subject-reported effects during direct brain (CSF) administration of valproate. Type of series: in vivo.
A short description of series [6]: valproate concentration in blood serum and cerebrospinal fluid after administration was stopped (FIG. 1-3). The following applies: human subjects, FIG. 2. Format: in vivo.
Protocol: The subjects have been administered different dosage levels of valproate using different concentrations of valproate in solution. […] The subjects have been administered different dosage levels of valproate using different concentrations of valproate in solution. […] The subject has been administered 60 mg/day total of valproate using a pump which provides direct regional administration of valproate to the subject's brain using a 100 mg/mL solution.
Series [7] can be described thus: solubility of sodium valproate in water. The following applies: early emulsion experiments.
The mark [8] stands for this setting: 0.4% sodium citrate (13.6 mM) in 150 mg/mL (0.9 M) sodium valproate.
Setting [9] is: 150 mg/mL sodium valproate, 5 mL, 25 mM HCl.

Entries after “also recorded” stand apart in the source; their conditions may differ. Counter-ions that a name gives are not always drawn.

Turning to `NCC(CC(=O)O)c1ccc(Cl)cc1` (stereo not shown) [Baclofen], the half-life entry in series [1] is reported as “five”.

For the molecule `O=C(O)CC(O)(CC(=O)O)C(=O)O` [sodium citrate], in series [2] (setting [8]), the “effect of sodium citrate on buffer capacity” value is recorded as “does not provide any measurable increase in buffering capacity above pH 7; also recorded: virtually no effect” and the “effect of sodium citrate on initial pH” value is on record as “nor does it significantly change the initial pH”.

`CCCC(CCC)C(=O)[O-].[Na+]` [sodium valproate]: the “solubility limits in water, commonly reported” value in series [3] was 50 to 100 mg/mL. Moreover, the pH of solution result in series [4] (150 mg/mL sodium valproate in water) is recorded as “approximately 8.3”. In addition, the pH of solution entry in series [4] (more concentrated solutions (>350 mg/mL)) is given as “above 9”. Besides, the “perception of body temperature” value in series [5] (human subjects receiving valproate to the brain) is “always cold”. Further, in series [5] (human subjects, on reaching a therapeutic level), the “nausea at therapeutic level” value is listed as “feeling of nauseous which seems to pass over time”. Further, the “concentration in cerebrospinal fluid over time” value in series [6] was “drops quickly”. The “volume of 25 mM HCl at which the pH hits the pKa” value in series [2] (10 mM sodium valproate, 5 mL) is 0.6 mL. In addition, the “pH at start of titration” value in series [2] (10 mM sodium valproate, 5 mL, before acid) was 6.6. In addition, the “pH after 0.6 mL of acid” value in series [2] (10 mM sodium valproate, 5 mL, 0.6 mL of 25 mM HCl) is reported as 4.81. The “pH after 0.7 mL of acid” value in series [2] (10 mM sodium valproate, 5 mL, 0.7 mL of 25 mM HCl) came out at 4.74. Besides, the “pH after 1 mL of acid” value in series [2] (10 mM sodium valproate, 5 mL, 1 mL of 25 mM HCl added in 0.1 mL increments) was found to be 4.36. Also, in series [2] (150 mg/mL sodium valproate), the “change in pH on titration” value is listed as “minimal”. Further, in series [2] (setting [9]), the “pH at last point of titration curve” value was found to be 7.30 and the “pH at second-to-last point of titration curve” value was 7.34. Moreover, the “buffering of concentrated solutions” value in series [2] (concentrated solutions of sodium valproate) is “strongly buffer solutions at pH>8”.

Take `CCCC(CCC)C(=O)O` [valproic acid]: the “behaviour of emulsified droplets of pure valproic acid (liquid) in water” value in series [7] is given as “dissolving into the water”.

These data come from patent US11433038B2, “High concentration medicant solutions for treating neurological disorders” (Cerebral Therapeutics, Inc., priority 2017, dated 2022).
